From US11666589B2, “Pivarubicin and benzarubicin compositions” (Paradox Pharmaceuticals, Inc., priority 2020, dated 2023)

Tests used:
[1] = test system: 32D.3 cells; experiment: Cell viability by trypan blue with or without rottlerin
Experimental: Rottlerin treatment of cells, cell viability analysis by MTT [28] and immunoblot identification of protein expression were performed and described previously.
FIGS. 4A-4D are charts and images from studies of pivarubicin cytotoxicity mediated through PKC-delta (PKCd) activation. For FIG. 4A, 32D.3 cells, suspended in RPMI-1640 medium/10% FCS/IL-3 at a density of 5×10^5 cells/ml, were treated with either DMSO (C) or 5 μM pivarubicin (PIV) for 4 h prior to harvesting, cell fractionation, and immunoblot analysis of PKCd as described previously. For FIG. 4B, 32D.3 cells were pretreated with 10 μM rottlerin for 2 h prior to exposure to 5 μM drug for 1 h at 37° C. Cells were pelleted and washed twice in large volumes of warm PBS, then resuspended in fresh, drug-free medium containing 10 μM rottlerin at 5×10^5 cells/ml and incubated at 37° C. for up to 72 h. At indicated times, aliquots of cells were withdrawn and stained with trypan blue. Viable cells were scored based on the exclusion of stain and gross morphological appearance. For the results shown in FIGS. 4C and 4D, 32D.3 cells were transfected with PKCd siRNA or scrambled siRNA as described in the Materials and Methods section under “Chemicals and Biologicals”. The cells were then assessed for pivarubicin cytotoxicity as for FIG. 4A. Each datum point represents the mean and standard error of at least three independent determinations, each consisting of 300-500 cells per count, when possible.

[2] = test system: CEM/VLB-10; experiment: Drug resistance of P-glycoprotein overexpressing CEM/VLB-10 cells; type: cell-based, human; conditions: CEM/VLB-10 versus CCRF-CEM
Experimental: Pivarubicin used for TNBC studies was synthesized by Dr. John Rimoldi (Univ. of Mississippi) using the previously described protocol. Doxorubicin HCl, rottlerin and all antibodies were purchased from Sigma-Aldrich (St. Louis, Mo.). For in vitro experiments, doxorubicin and pivarubicin were dissolved in DMSO. The final maximum DMSO concentration used for in vitro drug treatments (1% for 72 hours) was not cytotoxic. IL-3-dependent 32D.3 murine myeloid cells, CCRF-CEM human lymphoblastic leukemia cells and multidrug-resistant variants (generous gift of Dr. William T. Beck, St. Jude Children's Research Hospital, Memphis, Tenn.), 293 embryonic human kidney cells and HL-60 human acute myeloid leukemia cells transfected with Bcr-Abl, Bcl-XL or empty expression vectors (generous gift of Dr. Kapil Bhalla, Univ. of Miami) were maintained as previously described. K562 human chronic myelogenous leukemia and LNCaP human prostate cancer cells were purchased from ATCC (Manassas, Va.) and maintained as described by the vendor. LNCaP/Bcl-2 cells were the generous gift of Dr. Ralph Buttyan (Columbia Univ.). Luminescent MDA-MB-231-LM2 (LM-2; metastatic lung subpopulation isolated from human TNBC MDA-MB-231 cells transduced with eIF1a-Luc2-puro lentivirus) were generously provided by Dr. Yibin Kang, Princeton Univ.) and maintained in culture as previously described. […]

[3] = Maximum tolerated dose in non-tumor-bearing mice; type: in vivo, female NSG mice
Experimental: The MTD for pivarubicin was 26.6 mg/kg, producing a reversible mean 20% weight loss after two doses, with a third dose producing an irreversible mean weight loss >20%.

[4] = Cardiotoxicity assessment (Bertazzoli Test), non-tumor-bearing mice; type: in vivo, female NSG mice; conditions: for hearts with Severity 0 / hearts with Severity 0.5 / hearts with Severity 1.0 / hearts with Total Score 0 / hearts with Total Score 0.5 / hearts with Total Score 1.0: Non-Tumor-Bearing; for hearts with Severity 0 / hearts with Severity 0.5 / hearts with Severity 1.0: 3 i.p. doses at 2-week intervals; for hearts with Total Score 0 / hearts with Total Score 0.5 / hearts with Total Score 1.0: severity×extension
Experimental: (§1) Drug-mediated cardiotoxicity was assessed in both non-tumor-bearing female NSG mice administered three doses (i.p. every two weeks) of the MTD of doxorubicin, pivarubicin or the equivalent volume of solvent only and in hearts excised from tumor-bearing mice treated as described in Results section. Body weights were monitored every three days. Two weeks after final dose, mice were sacrificed, and hearts were excised immediately. Intact ventricular myocardia were fixed for a minimum of 24 h in 10% formalin phosphate buffered to pH 7.0 and then carefully sectioned into 2 to 3-mm thick slices before being dehydrated in graded ethanol and cleared in xylene prior to embedding in paraffin at 58° C. Sections (4-μm thick) were mounted on glass slides, deparaffinized in xylene, and stained in the routine fashion with Mayer's hematoxylin and eosin. Slide labels were blinded to evaluator. Myocardial lesions were evaluated by routine light microscopy and scored with regard to the severity and extent of damage:
(§2) Degree of severity (S)—0, no evidence of histological changes; 1, sarcoplasmic microvacuolization and/or inclusions (interstitial or cellular edema); 2, as in 1 plus sarcoplasmic macrovacuolization or atrophia, necrosis, fibrosis, endocardial lesions, and thrombi.
(§3) Degree of extension (E)—0, no lesions; 0.5, less than 10 single altered myocytes on the whole-heart section; 1, scattered single altered myocytes; 2, scattered small groups of altered myocytes; 3, spread small groups of altered myocytes; 4, confluent groups of altered myocytes; 5, most of cells damaged.
(§4) Total cardiotoxicity score/animal=S×E and mean total score (MTS) for each treatment group was MTS=(S×E)/number of animals.
(§5) Given the limitation of doxorubicin in the treatment of tumors due to irreversible cardiotoxicity due to the total cumulative dose of drug, it was next determined whether pivarubicin produced evidence of cardiotoxic damage at the total dose of drug administered to NSG mice that produced tumor growth inhibition. Histological evidence of ventricular damage in hearts of drug- or vehicle-treated NSG mice were assessed using the Bertazzoli Test, originally designed to assess doxorubicin-induced cardiomyocyte damage. Analyses were performed on hearts from two independent experiments: 1) hearts that were excised at dosing endpoint from tumor-bearing NSG mice receiving 2 i.p. doses of pivarubicin at 16.5 mg/kg, doxorubicin at 1.4 mg/kg then 1.6 mg/kg and an equivalent volume of vehicle alone and 2) non-tumor-bearing female NSG mice receiving 3 i.p. doses of pivarubicin at 16.5 mg/kg, doxorubicin at 1.4 mg/kg then 1.6 mg/kg×2 and an equivalent volume of vehicle alone at 2-week intervals.
(§6) Non-tumor-bearing female NSG mice at 9 weeks old were treated with either 16.5 mg/kg pivarubicin (PIV), 1.4 mg/kg (1×) and 1.6 mg/kg (2×) doxorubicin and equivalent volumes of vehicle i.p. at 2-week intervals. Tumor-bearing female NSG mouse treatment was as described for the “Cardiotoxicity Assessment method” method. At endpoint, hearts were excised and prepared for histological analysis as described above. Severity and severity×extension (total score) are defined in Materials and Methods.

[5] = Cardiotoxicity assessment (Bertazzoli Test), tumor-bearing mice; type: in vivo, female NSG mice; conditions: for hearts with Severity 0 / hearts with Severity 0.5 / hearts with Severity 1.0: 2 i.p. doses; for hearts with Total Score 0 / hearts with Total Score 0.5 / hearts with Total Score 1.0: severity×extension
Experimental: as §1, §2, §3, §4, §5, §6

[6] = without rottlerin, doxorubicin at IC50 concentration

SMILES	time to 50% cell kill [1, 6]	resistance [2]	hearts with Severity 0 [4]	hearts with Severity 0.5 [4]	hearts with Severity 1.0 [4]	hearts with Total Score 0 [4]	hearts with Total Score 0.5 [4]	hearts with Total Score 1.0 [4]	hearts with Severity 0 [5]	hearts with Severity 0.5 [5]	hearts with Severity 1.0 [5]	hearts with Total Score 0 [5]	hearts with Total Score 0.5 [5]	hearts with Total Score 1.0 [5]	also measured
COc1cccc2c1C(=O)c1c(O)c3c(c(O)c1C2=O)C[C@@](O)(C(=O)CO)C[C@@H]3O[C@H]1C[C@H](N)[C@H](O)[C@H](C)O1 [Doxorubicin, reference compound]	24 h	12 fold	5/9	0/9	4/9	7/9	2/9	0/9	7/9	0/9	2/9	8/9	1/9	0/9	effect of rottlerin co-treatment on cytotoxicity ([1]; 10 μM rottlerin): does not alter; reversible mean weight loss ([3]; 1.4 mg/kg after 3 prior escalating doses): 22%; irreversible mean weight loss ([3]; 1.8 mg/kg, independent dosing experiment): > 25%; MTD ([3]; i.p. once every 2 weeks): 1.4 mg/kg
COc1cccc2c1C(=O)c1c(O)c3c(c(O)c1C2=O)C[C@@](O)(C(=O)COC(=O)C(C)(C)C)C[C@@H]3O[C@H]1C[C@H](NCc2ccccc2)[C@H](O)[C@H](C)O1 [Pivarubicin, N-Benzyladriamycin-14-pivalate]	≤ 6 h	no resistance	9/9	0/9	0/9	9/9	0/9	0/9	9/10	0/10	1/10	9/10	0/10	1/10	time to 50% cell kill ([1]; co-treatment with 10 μM rottlerin): 24 h; reversible mean weight loss ([3]; 26.6 mg/kg, after two doses): 20%; irreversible mean weight loss ([3]; 26.6 mg/kg, third dose): > 20%; histologic damage to ventricular cardiomyocytes ([4]; non-tumor-bearing mice (n=9), cumulative tumor growth inhibitory dose): no evidence of histologic damage
